Measured values as given in publication PMC11992225, “Antibacterial compounds against non-growing and intracellular bacteria” (npj Antimicrobials and Resistance, 2025).
Where “and” joins values, the source holds several entries; their conditions need not be identical. Identical values can stand only once.

Assays:
[1] = test system: non-growing UPEC CFT073; assay: Dose-dependent killing analysis (CFU spot-plating) of stationary-phase UPEC; assay type: cell-based, Escherichia coli
How it was run: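 Non-growing (stationary-phase) UPEC CFT073 treated with compounds in 96-well format at 200 μl, then 10-fold serially diluted in PBS and 10 μl spots plated on LB agar. Plates incubated overnight at 37 °C; colonies counted at lowest resolvable dilution to give CFU. Three biological replicates.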

[2] = test system: intracellular S. flexneri 5a M90T in TC7 cells; assay: microbe, parasite or virus in culture; assay type: cell-based, Shigella flexneri
[3] = test system: non-growing S. aureus DSM2569; assay: Dose-dependent killing analysis (CFU spot-plating) of stationary-phase S. aureus; assay type: cell-based, Staphylococcus aureus; settings: S. aureus; for Killing: average Δlog10(CFU/ml): vs 9,097 before treatment
How it was run: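 Stationary-phase S. aureus DSM2569 was grown and treated for 24 h in 1:4 CA-MHB at pH 7.4. Treated samples were serially diluted 10-fold in PBS and spot-plated on LB agar, which was incubated overnight at 37 °C. Survivors were counted as CFU over three biological replicates.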

Question: For `CO[C@H]1/C=C/O[C@@]2(C)Oc3c(C)c(O)c4c(O)c(c(/C=N/N5CCN(C6CCCC6)CC5)c(O)c4c3C2=O)NC(=O)/C(C)=C\C=C\[C@H](C)[C@H](O)[C@@H](C)[C@@H](O)[C@@H](C)[C@H](OC(C)=O)[C@@H]1C` [Rifapentine], which “log10(CFU/ml) after treatment, single replicates” value (“log10(CFU/ml) after treatment” below) ([1]; E. coli in 1:4 CA-MHB (pH 7.4), concentration 0.25) is on record?
Answer: 9.114 log10(CFU/ml) and 8.301 log10(CFU/ml) and 8.415 log10(CFU/ml)

Question: And the “Killing: average Δlog10(CFU/ml)” value ([1]; E. coli in 1:4 CA-MHB (pH 7.4), concentration 0.25, vs 8.977 before treatment)?
Answer: 0.367 log10(CFU/ml)

Question: What about the “log10(CFU/ml) after treatment” value ([1]; E. coli in 1:4 CA-MHB (pH 7.4), concentration 0.5) of the same compound?
Answer: 9.301 log10(CFU/ml) and 8.778 log10(CFU/ml) and 8.380 log10(CFU/ml)

Question: And the “Killing: average Δlog10(CFU/ml)” value ([1]; E. coli in 1:4 CA-MHB (pH 7.4), concentration 0.5, vs 8.977 before treatment)?
Answer: 0.158 log10(CFU/ml)

Question: And the “log10(CFU/ml) after treatment” value ([1]; E. coli in 1:4 CA-MHB (pH 7.4), concentration 1)?
Answer: 9.079 log10(CFU/ml) and 8.602 log10(CFU/ml) and 8.342 log10(CFU/ml)

Question: What about the “Killing: average Δlog10(CFU/ml)” value ([1]; E. coli in 1:4 CA-MHB (pH 7.4), concentration 1, vs 8.977 before treatment) of the same compound?
Answer: 0.303 log10(CFU/ml)

Question: What about the “log10(CFU/ml) after treatment” value ([1]; E. coli in 1:4 CA-MHB (pH 7.4), concentration 2.5) of the same compound?
Answer: 9.176 log10(CFU/ml) and 9.204 log10(CFU/ml) and 8.845 log10(CFU/ml)

Question: And the “Killing: average Δlog10(CFU/ml)” value ([1]; E. coli in 1:4 CA-MHB (pH 7.4), concentration 2.5, vs 8.977 before treatment)?
Answer: -0.098 log10(CFU/ml)

Question: What about the “log10(CFU/ml) after treatment” value ([1]; E. coli in 1:4 CA-MHB (pH 7.4), concentration 5) of the same compound?
Answer: 9.204 log10(CFU/ml) and 8.699 log10(CFU/ml) (2×)

Question: What about the “Killing: average Δlog10(CFU/ml)” value ([1]; E. coli in 1:4 CA-MHB (pH 7.4), concentration 5, vs 8.977 before treatment) of the same compound?
Answer: 0.110 log10(CFU/ml)

Question: And the “log10(CFU/ml) after treatment” value ([1]; E. coli in 1:4 CA-MHB (pH 7.4), concentration 10)?
Answer: 9.114 log10(CFU/ml) and 8.362 log10(CFU/ml) and 8.204 log10(CFU/ml)

Question: And the “Killing: average Δlog10(CFU/ml)” value ([1]; E. coli in 1:4 CA-MHB (pH 7.4), concentration 10, vs 8.977 before treatment)?
Answer: 0.417 log10(CFU/ml)

Question: What about the “log10(CFU/ml) after treatment” value ([1]; E. coli in LPM (pH 5.5), concentration 0.25) of the same compound?
Answer: 7.000 log10(CFU/ml) and 6.519 log10(CFU/ml) and 7.613 log10(CFU/ml)

Question: And the “Killing: average Δlog10(CFU/ml)” value ([1]; E. coli in LPM (pH 5.5), concentration 0.25, vs 7.350 before treatment)?
Answer: 0.307 log10(CFU/ml)

Question: And the “log10(CFU/ml) after treatment” value ([1]; E. coli in LPM (pH 5.5), concentration 0.5)?
Answer: 6.954 log10(CFU/ml) and 6.699 log10(CFU/ml) and 7.531 log10(CFU/ml)

Question: What about the “Killing: average Δlog10(CFU/ml)” value ([1]; E. coli in LPM (pH 5.5), concentration 0.5, vs 7.350 before treatment) of the same compound?
Answer: 0.289 log10(CFU/ml)

Question: What about the “log10(CFU/ml) after treatment” value ([1]; E. coli in LPM (pH 5.5), concentration 1) of the same compound?
Answer: 6.778 log10(CFU/ml) and 6.602 log10(CFU/ml) and 7.613 log10(CFU/ml)

Question: And the “Killing: average Δlog10(CFU/ml)” value ([1]; E. coli in LPM (pH 5.5), concentration 1, vs 7.350 before treatment)?
Answer: 0.353 log10(CFU/ml)

Question: And the “log10(CFU/ml) after treatment” value ([1]; E. coli in LPM (pH 5.5), concentration 2.5)?
Answer: 7.079 log10(CFU/ml) and 6.447 log10(CFU/ml) and 7.491 log10(CFU/ml)

Question: What about the “Killing: average Δlog10(CFU/ml)” value ([1]; E. coli in LPM (pH 5.5), concentration 2.5, vs 7.350 before treatment) of the same compound?
Answer: 0.344 log10(CFU/ml)

Question: And the “log10(CFU/ml) after treatment” value ([1]; E. coli in LPM (pH 5.5), concentration 5)?
Answer: 7.204 log10(CFU/ml) and 6.845 log10(CFU/ml) and 7.301 log10(CFU/ml)

Question: What about the “Killing: average Δlog10(CFU/ml)” value ([1]; E. coli in LPM (pH 5.5), concentration 5, vs 7.350 before treatment) of the same compound?
Answer: 0.234 log10(CFU/ml)

Question: What about the “log10(CFU/ml) after treatment” value ([1]; E. coli in LPM (pH 5.5), concentration 10) of the same compound?
Answer: 6.778 log10(CFU/ml) and 7.041 log10(CFU/ml) and 7.204 log10(CFU/ml)

Question: And the “Killing: average Δlog10(CFU/ml)” value ([1]; E. coli in LPM (pH 5.5), concentration 10, vs 7.350 before treatment)?
Answer: 0.342 log10(CFU/ml)

Question: What about the IC50 ([2]; Shigella flexneri, TC7, 14 h) of the same compound?
Answer: 3.09 µM

Question: What about the “Fluorescence intensity (RFU), Mean, 0.0625 x MIC” value ([2]; TC7 cells infected with GFP-expressing S. flexneri, 14 h treatment, 0.0625 x MIC) of the same compound?
Answer: 10012.8 RFU

Question: What about the “Fluorescence intensity (RFU), Mean, 0.125 x MIC” value ([2]; TC7 cells infected with GFP-expressing S. flexneri, 14 h treatment, 0.125 x MIC) of the same compound?
Answer: 10655.7 RFU

Question: What about the “Fluorescence intensity (RFU), Mean, 0.25 x MIC” value ([2]; TC7 cells infected with GFP-expressing S. flexneri, 14 h treatment, 0.25 x MIC) of the same compound?
Answer: 3668.46 RFU

Question: What about the “Fluorescence intensity (RFU), Mean, 0.5 x MIC” value ([2]; TC7 cells infected with GFP-expressing S. flexneri, 14 h treatment, 0.5 x MIC) of the same compound?
Answer: 1616.31 RFU

Question: What about the “Fluorescence intensity (RFU), Mean, 2 x MIC” value ([2]; TC7 cells infected with GFP-expressing S. flexneri, 14 h treatment, 2 x MIC) of the same compound?
Answer: 1321.39 RFU

Question: What about the “Fluorescence intensity (RFU), Mean, 4 x MIC” value ([2]; TC7 cells infected with GFP-expressing S. flexneri, 14 h treatment, 4 x MIC) of the same compound?
Answer: 1243.06 RFU

Question: And the “Fluorescence intensity (RFU), Mean, 8 x MIC” value ([2]; TC7 cells infected with GFP-expressing S. flexneri, 14 h treatment, 8 x MIC)?
Answer: 1167.19 RFU

Question: And the “Fluorescence intensity (RFU), Mean, 16 x MIC” value ([2]; TC7 cells infected with GFP-expressing S. flexneri, 14 h treatment, 16 x MIC)?
Answer: 915.083 RFU

Question: What about the “Fluorescence intensity (RFU), Mean, MIC” value ([2]; TC7 cells infected with GFP-expressing S. flexneri, 14 h treatment, MIC) of the same compound?
Answer: 1458.03 RFU

Question: What about the “log10(CFU/ml) after treatment” value ([3]; concentration 0.1) of the same compound?
Answer: 8.708 log10(CFU/ml) and 8.968 log10(CFU/ml) and 8.653 log10(CFU/ml)

Question: What about the “Killing: average Δlog10(CFU/ml)” value ([3]; concentration 0.1) of the same compound?
Answer: 0.321 log10(CFU/ml)

Question: What about the “log10(CFU/ml) after treatment” value ([3]; concentration 0.5) of the same compound?
Answer: 8.732 log10(CFU/ml) and 8.954 log10(CFU/ml) and 8.491 log10(CFU/ml)

Question: And the “Killing: average Δlog10(CFU/ml)” value ([3]; concentration 0.5)?
Answer: 0.371 log10(CFU/ml)

Question: What about the “log10(CFU/ml) after treatment” value ([3]; concentration 2.5) of the same compound?
Answer: 8.672 log10(CFU/ml) and 8.748 log10(CFU/ml) and 8.643 log10(CFU/ml)

Question: And the “Killing: average Δlog10(CFU/ml)” value ([3]; concentration 2.5)?
Answer: 0.409 log10(CFU/ml)

Question: What about the “log10(CFU/ml) after treatment” value ([3]; concentration 10) of the same compound?
Answer: 8.756 log10(CFU/ml) and 8.477 log10(CFU/ml) and 8.544 log10(CFU/ml)

Question: And the “Killing: average Δlog10(CFU/ml)” value ([3]; concentration 10)?
Answer: 0.505 log10(CFU/ml)
